The results in this text go back to patent US20230174507A1, “IMIDAZOLE 3-OXIDE DERIVATIVE BASED ACSS2 INHIBITORS AND METHODS OF USE THEREOF” (METABOMED LTD., priority 2020, published 2023).

For orientation: pIC50 means the IC50 on a negative log10 scale, so that one unit is a factor of ten.

pIC50: −log10 of the molar value.

The target in one test is T1, human ACSS2 protein (Homo sapiens, UniProt Q9NR19).
T1 construct: purchased OriGene Technologies, Inc
Kind of test: ACSS2 cell-free activity assay (pyrophosphatase-coupled, Biomol green). The note with it: 10 nM human ACSS2, 90 minutes at 37 C, absorbance at 620 nm; read-out: ACSS2 Biochemical IC50. Summed up:
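10 nM human ACSS2 incubated 90 min at 37 C with compound, 300 μM ATP, 10 μM CoA, 5 mM NaAc in pH 7.5 Hepes buffer with 0.5 U/ml pyrophosphatase. Released phosphate detected with Biomol Green at 620 nm; IC50 by non-linear regression constrained to 0% and 100%.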

The next test concerns the target T2, human ACSS1 protein (Homo sapiens, UniProt Q9NUB1).
T2 construct: purchased MyBioSource
T2 sequence (Q9NUB1 38-689): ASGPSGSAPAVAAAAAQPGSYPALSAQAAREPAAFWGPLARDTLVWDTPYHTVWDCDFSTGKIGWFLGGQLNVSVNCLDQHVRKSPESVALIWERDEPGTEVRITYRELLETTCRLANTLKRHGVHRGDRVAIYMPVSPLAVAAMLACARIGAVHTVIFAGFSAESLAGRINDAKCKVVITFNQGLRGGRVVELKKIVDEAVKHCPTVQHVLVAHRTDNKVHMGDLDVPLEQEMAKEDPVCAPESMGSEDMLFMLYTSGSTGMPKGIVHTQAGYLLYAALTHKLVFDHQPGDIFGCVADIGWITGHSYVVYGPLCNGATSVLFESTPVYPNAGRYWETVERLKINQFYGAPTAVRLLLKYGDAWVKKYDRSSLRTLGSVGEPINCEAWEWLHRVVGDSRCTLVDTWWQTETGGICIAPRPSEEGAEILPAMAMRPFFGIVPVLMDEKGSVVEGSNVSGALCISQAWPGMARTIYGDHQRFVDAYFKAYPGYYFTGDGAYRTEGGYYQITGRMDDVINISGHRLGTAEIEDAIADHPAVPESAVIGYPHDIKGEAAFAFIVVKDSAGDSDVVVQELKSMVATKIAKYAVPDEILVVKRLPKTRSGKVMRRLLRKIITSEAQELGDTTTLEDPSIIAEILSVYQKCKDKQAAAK
Kind of test: ACSS1 cell-free activity assay (pyrophosphatase-coupled, Biomol green). It counts as biochemical. The settings on record: 5 nM human ACSS1, 30 minutes at room temperature, absorbance at 620 nm. A digest of the protocol: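 5 nM human ACSS1 incubated 30 min at RT with compound in pH 7.5 Hepes buffer with 15 μM CoA, 5 mM acetate, 300 μM ATP, 2 mM MgCl2 and pyrophosphatase. Released phosphate detected with Biomol Green (30 min), absorbance 620 nm. IC50 from constrained non-linear regression.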

Test [1] deals with T3, ACSS2 in MDA-MB-468 cells (Homo sapiens, UniProt Q9NR19).
T3 construct: endogenous in cells; host or cells: MDA-MB-468 cells, hypoxia (1% O2)
T3 sequence (Q9NR19 whole entry): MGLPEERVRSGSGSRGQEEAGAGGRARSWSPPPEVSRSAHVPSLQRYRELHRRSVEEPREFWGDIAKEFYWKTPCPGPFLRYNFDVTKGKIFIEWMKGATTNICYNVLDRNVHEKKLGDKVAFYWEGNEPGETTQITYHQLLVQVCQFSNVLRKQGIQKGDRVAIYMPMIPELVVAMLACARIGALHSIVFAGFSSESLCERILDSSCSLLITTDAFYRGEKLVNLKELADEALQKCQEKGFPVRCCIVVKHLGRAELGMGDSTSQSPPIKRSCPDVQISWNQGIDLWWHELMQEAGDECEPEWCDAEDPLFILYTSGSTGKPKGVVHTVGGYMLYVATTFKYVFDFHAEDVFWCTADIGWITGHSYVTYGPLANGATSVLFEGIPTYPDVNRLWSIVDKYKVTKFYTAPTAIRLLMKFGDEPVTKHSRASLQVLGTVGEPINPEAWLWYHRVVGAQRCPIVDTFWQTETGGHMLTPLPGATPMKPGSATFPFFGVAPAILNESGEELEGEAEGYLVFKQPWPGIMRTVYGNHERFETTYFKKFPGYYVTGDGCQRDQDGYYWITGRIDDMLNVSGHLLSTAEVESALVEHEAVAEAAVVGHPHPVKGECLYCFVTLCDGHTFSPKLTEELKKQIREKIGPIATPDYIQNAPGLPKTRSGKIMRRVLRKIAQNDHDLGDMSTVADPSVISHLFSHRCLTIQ
Kind of test: Cellular fatty-acid IC50: 13C-acetate incorporation into fatty acids (palmitate), LC-MS. It counts as cell-based. The settings on record: hypoxic conditions (1% O2), 75% charcoal stripped serum, 5 hours, 13C-acetate into palmitate, read-out: Cellular Fatty-acid IC50 High Serum MDA468. Summed up: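 MDA-MB-468 cells under hypoxia (1% O2) treated 5 h with compound (0.000512-1000 nM) in medium with 75% charcoal-stripped serum and 0.5 mM 13C-acetate. 13C-palmitate quantified by LC-MS (negative ion, RSIM). IC50 from inhibition versus no-compound control, background-subtracted, constrained 0–100% nonlinear fit.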

T1 sequence (Q9NR19 whole entry): as above

Turning to `COc1ccc(-c2[nH]c(C)c(C(=O)Nc3cccc(-c4cn(C)nn4)c3)[n+]2[O-])cc1-c1c(C)cccc1C` [Compound 199, 2-(6-methoxy-2′,6′-dimethyl-[1,1′-biphenyl]-3-yl)-5-methyl-4-((3-(1-methyl-1H-1,2,3-triazol-4-yl)phenyl)carbamoyl)-1H-imidazole 3-oxide], the pIC50 was above 9.00 on human ACSS2 protein and 7.30 to 7.70 in test [1]. Also, at human ACSS1 protein, the “ACSS1 Biochemical IC50 (nM)” value was “Inactive”.
For `COc1ccc(-c2[nH]c(C)c(C(=O)Nc3cccc(-c4cnn(C)n4)c3)[n+]2[O-])cc1-c1c(C)cccc1C` [Compound 201, 2-(6-methoxy-2′,6′-dimethyl-[1,1′-biphenyl]-3-yl)-5-methyl-4-((3-(2-methyl-2H-1,2,3-triazol-4-yl)phenyl)carbamoyl)-1H-imidazole 3-oxide], in that order: above 9.00, above 7.70 and “Inactive”.
For `COc1cc(F)c(-c2[nH]c(C)c(C(=O)Nc3cccc(C(F)(F)C4CC4)c3)[n+]2[O-])nc1-c1c(C)cccc1C` [Compound 202, 4-((3-(cyclopropyldifluoromethyl)phenyl)carbamoyl)-2-(6-(2,6-dimethylphenyl)-3-fluoro-5-methoxypyridin-2-yl)-5-methyl-1H-imidazole 3-oxide], in that order: above 9.00, below 7.30 and “Inactive”.
For `Cc1cccc(C)c1-c1cc(-c2[nH]c(C)c(C(=O)Nc3cccc(C(F)(F)F)c3)[n+]2[O-])ccc1F` [Compound 203, 2-(6-fluoro-2′,6′-dimethyl-[1,1′-biphenyl]-3-yl)-5-methyl-4-((3-(trifluoromethyl)phenyl)carbamoyl)-1H-imidazole 3-oxide] the same measures were above 9.00, below 7.30 and “Inactive”.
Regarding `COc1cc(F)c(-c2[nH]c(C)c(C(=O)Nc3cccc(C(F)(F)F)c3)[n+]2[O-])cc1-c1c(F)cccc1F` [Compound 207, 5-methyl-2-(2′,4,6′-trifluoro-6-methoxy-[1,1′-biphenyl]-3-yl)-4-((3-(trifluoromethyl)phenyl)carbamoyl)-1H-imidazole 3-oxide], the pIC50 is above 9.00 on human ACSS2 protein and below 7.30 in test [1]. For the same compound, the “ACSS1 Biochemical IC50 (nM)” value on human ACSS1 protein is listed as “Inactive”.
